Among the data in patent US20120053148A1, “INHIBITORS OF HEPATITIS C VIRUS” (GILEAD SCIENCES, INC., priority 2010, published 2012) are EC50 and inhibition values, retold here.

Molecules are shown by their SMILES.

The inhibition is the percentage by which the read-out fell short of the control.

One assay relates to HCV Replicon IB. The assay is described as follows: HCV replicon assay in Huh-7 cells, genotype 1b (Rluc luciferase readout). To be noted: HCV1B replicon, Huh-7 cells, 3 days; read-out: EC50_HCV1B_. The class given is cell-based, hepatitis C virus. (In general: A replicon is a self-replicating genome or part of one, used to study replication in cells.)
Turning to `CC(C)(C)c1cc(C2CC2)cc2c(N)cc(-c3nnc(NC[C@@H]4CCCO4)o3)nc12` [Compound 359], the EC50 was 1.21 nM.

The same assay, now with this note: Hepatitis C virus, 72 h; 10 uM; 1b-Rluc replicon, Huh-7 cells, 3 days; read-out: Inhibition @ 10 uM in 1b-Rluc.
Regarding `CCOCCOCCOCCCNc1nnc(-c2cc(C)c3cc(C4CC4)cc(C(F)(F)F)c3n2)o1` [Compound 253], the inhibition at 10 µM is 80%. On the same count and under the same terms, the same measure for `Cc1cc(-c2nnc(NCCCCO)o2)nc2c(C(C)(C)C)cc(C3CC3)cc12` [Compound 284]: 99.9%; for `CCCC(=O)Nc1nnc(-c2cc(C)c3cc(C4CC4)cc(C(F)(F)F)c3n2)o1` [Compound 262]: 99.7%. Same read-out and setting: the same measure for `Cc1cc(-c2nnc(N)o2)nc2c(C(F)(F)F)cc(C3CC3)cc12` [Compound 243]: 88.4%; for `CNc1cc(C(F)(F)F)c2nc(C(=O)NCc3ccccn3)cc(C)c2c1` [Compound 181]: 99.4%; for `Cc1cc(C(=O)NCC2COCC(C)(C)N2)nc2c(C(F)(F)F)cc(C3CC3)cc12` (stereo not shown) [Compound 133]: 92.4%. Still for that read-out and setting: next, `CCCCNc1nnc(-c2cc(C)c3cc(OC)cc(C(F)(F)F)c3n2)o1` [Compound 273]: 100%; `O=C(NCc1ccccn1)c1cc(Cl)c2cc(C3CC3)cc(C(F)(F)F)c2n1` [Compound 210]: 99.9%; `Cc1cc(C(=O)NCc2ccccn2)nc2c(C(F)(F)F)cc(C3CC3(C)C)cc12` (stereo not shown) [Compound 142]: 99.4%.

As for `CNc1cc(C(=O)NCc2ccccn2)nc2c(C(F)(F)F)cc(C3CC3)cc12` [Compound 216], the inhibition at 10 µM was determined as 98.2%.

`Cc1cc(-c2nnc(NCCS(C)(=O)=O)o2)nc2c(C(C)(C)C)cc(C3CC3)cc12` [Compound 285]: the inhibition at 10 µM turned out to be 99.6%.

Turning to `Cc1cc(-c2nnc(NCCCO)o2)nc2c(C(F)(F)F)cc(C3CC3)cc12` [Compound 249], the inhibition at 10 µM stood at 100%. `Cc1cc(-c2nnc(NCCCN3CCOCC3)o2)nc2c(C(F)(F)F)cc(C3CC3)cc12` [Compound 251]: the inhibition at 10 µM turned out to be 80.9%. Turning to `C#Cc1cc(OC(F)(F)F)cc2c(O)cc(C(=O)NCc3ccccn3)nc12` [Compound 237], the inhibition at 10 µM worked out at 21.7%.

The same assay, now with this note: Hepatitis C virus, Huh-7, 72 h, HCV1B replicon, Huh-7 cells, 3 days; read-out: EC50_HCV1B_.
Regarding `Cc1cc(-c2nnc(N[C@H]3C[C@](O)(CF)C3)o2)nc2c(C(C)(C)C)cc(OC(F)F)cc12` [Compound 527], the EC50 was found to be 0.81 nM.

For `CCCCNc1nnc(-c2cc(C)c3cc(C4CC4)cc(C(C)(C)C)c3n2)s1` [Compound 377], the EC50 turned out to be 6.23 nM.

Consider `Cc1cc(-c2nnc(Nc3cccnc3)o2)nc2c(C(C)(C)C)cc(OCC(F)(F)F)cc12` [Compound 457], for which the EC50 stood at 4.1 nM. The same measure, in the same setting: next, `Nc1cc(C(=O)NC[C@@H]2CC(F)(F)CCN2)nc2c(C(F)(F)F)cc(OC(F)F)cc12` [Compound 314]: 26.1 nM; `Cc1cc(-c2nnc(NC[C@H]3C[C@H](O)C3)o2)nc2c(C(C)(C)C)cc(C3CC3)cc12` [Compound 418]: 4.58 nM; `CC(C)(C)c1cc(C2CC2)cc2c(N)cc(-c3nnc(NCCS(N)(=O)=O)o3)nc12` [Compound 351]: 24.1 nM. With `Cc1cc(-c2nnc(NCC[C@H](C)O)o2)nc2c(C(C)(C)C)cc(OCC(F)(F)F)cc12` [Compound 456], the EC50 worked out at 3.3 nM. Regarding `Cc1cc(-c2nnc(NCC(=O)N(C)C)o2)nc2c(C(C)(C)C)cc(OCC(F)(F)F)cc12` [Compound 453], the EC50 amounted to 14.9 nM. The same measure, in the same setting: the same measure for `Cc1cc(-c2nnc(NCC3O[C@H]4COC[C@H]4O3)o2)nc2c(C(C)(C)C)cc(C3CC3)cc12` (stereo partly shown) [Compound 413]: 311 nM. On the same count and under the same terms, the same measure for `CCCNc1nnc(-c2cc(N)c3cc(C4CC4)cc(C(C)(C)C)c3n2)o1` [Compound 366]: 2.01 nM; for `CC(C)(C)c1cc(C2CC2)cc2c(N)cc(-c3nnc(NCCCCO)o3)nc12` [Compound 355]: 3.24 nM. Still for that read-out and setting: next, `Cc1cc(C(=O)NC[C@@H]2C[C@](C)(O)CN2)nc2c(C(C)(C)C)cc(C3CC3)cc12` [Compound 429]: 294 nM.

The assay is the same for the next values; noted with them: Hepatitis C virus, Huh-7, 72 h, read-out: EC50_HCV1B_(nM).
For the compound `CC(C)(C)c1cc(C2CC2)cc2c(N)cc(C(=O)NC[C@@H]3CC4(CN3)OCCO4)nc12` [Compound 332], the EC50 worked out at 3.07 nM.
